# Experimental data: paper PMC11251504 (Hypertension (Dallas, Tex. : 1979), 2024)
# Entries after “also recorded” stand apart in the source; their conditions may differ. Peptide text beside a SMILES is read from it.
# Assays:
# neprilysin = assay: renal cortical membranes; conditions: cited from earlier work
# [1] = tested on: angiotensin-converting enzyme (ACE); assay: extracellular, eg, in blood; conditions: cited from earlier work
# chymase = assay: intracellular, eg, at tissue sites; conditions: cited from earlier work
# [2] = Heparin plasma from 3 healthy volunteers, diluted 1:10 in PBS; conditions: human, 37 °C, up to 60 minutes
# [3] = Metabolism of Ang-(1-12) in 1:10 diluted human plasma with and without enzyme inhibitors; conditions: 37 °C; for Angiotensin metabolite generated from Ang-(1-12), aliskiren + lisinopril / Angiotensin metabolite generated from Ang-(1-12), aliskiren: 60 min after adding 1000 ng/mL Ang-(1-12), t=0 level subtracted; for Angiotensin metabolite generated from Ang-(1-12), aliskiren + lisinopril: aliskiren 10 µmol/L + lisinopril 10 µmol/L; for Angiotensin metabolite generated from Ang-(1-12), aliskiren: aliskiren 10 µmol/L
# Description: Heparin plasma was obtained from 3 healthy volunteers (1 woman, 2 men; age range 30–40 years). The plasma was incubated for 1 hour at 37 °C, in the absence or presence of the renin inhibitor aliskiren (10 µmol/L), the ACE inhibitor lisinopril (10 µmol/L), the chymase inhibitor chymostatin (10 µmol/L), the aminopeptidase A inhibitor amastatin (10 µmol/L), the neprilysin inhibitor sacubitrilat (LBQ-657, 10 µmol/L), or the prolyl oligopeptidase inhibitor ZPP (20 µmol/L). All inhibitors were from Sigma Aldrich, St. Louis, MO. Next, the plasma was diluted 1:10 in PBS (t=0) and incubated again for 1 hour at 37 °C (t=60) with 1000 ng/mL Ang-(1-12; Sigma Aldrich). Samples at 0 and 60 minutes were collected in 6 mol/L guanidine hydrochloride, and angiotensins were quantified by LC-MS/MS.
# Human ([sequence], molecular weight: 1508.8 Da) and murine ([sequence], molecular weight: 1572.8 Da) Ang-(1-12) were quantified by LC-MS/MS. […] The powder was dissolved by cooled sonication using a 2-mm microtip (Sonics and Materials, Newton, NJ). Stable isotope-labeled IS for human and murine Ang-(1-12)–containing isoleucine C^13/N^15 (mass +7) at [Ile5] were spiked to tissue homogenates and stabilized blood samples at 1000 pg/mL for internal standardization. The samples then underwent C18-based solid-phase extraction for purification before being subjected to liquid chromatography using a reversed-phase analytical column operating in line with a Xevo TQ-S triple quadruple mass spectrometer (Waters). Two independent MS/MS transitions based on the mass-to-charge ratio of the parent (+3) and fragment ions (+2) were recorded for each analyte and IS simultaneously. Signals from IS were used to correct for peptide recovery in the sample preparation procedure and matrix signal suppression for each analyte in each individual sample.
# Data are provided as individual values and means. Statistical analysis was done by the Student’s t test or by ANOVA, followed by post hoc correction according to Dunnett.
# [4] = Recovery of spiked Ang-(1-12) from blood collected in 6 mol/L guanidine hydrochloride; assay type: in vitro ADME; conditions: human blood collected in 6 mol/L guanidine hydrochloride; LC-MS/MS with stable isotope-labeled IS
# [5] = Disappearance of Ang-(1-12) added to nonstabilized human plasma incubated at 37 °C; assay type: in vitro ADME; conditions: LC-MS/MS
# Description: MS/MS transitions were as follows:
# Signals for all 4 analytes were recorded simultaneously in all samples to show the specificity of the gained signals. […] The lower limit of quantification was 2 fmol/mL in blood and 10 fmol/g in tissue (ie, 3 pg/mL and 15 pg/g, respectively). Ang I, Ang II, Ang III, Ang IV, Ang-(1-7), and Ang-(1-5) were determined by LC-MS/MS as described before.[27],[28]
# A rapid collection of blood in 6 mol/L guanidine hydrochloride was chosen for blood collection since this allowed a full recovery of spiked Ang-(1-12; Figure 1A). Importantly, Ang-(1-12) remained undetectable when incubating nonstabilized plasma at 37 °C (Figure 1B), while Ang-(1-12) added to nonstabilized human plasma disappeared almost completely (>80%) within 10 minutes during incubation at 37 °C (Figure 1B). Stabilized human blood samples contained Ang I and Ang II, but Ang-(1-12) was not detectable (Figure 2C). Plasma obtained from the same patients contained normal renin and angiotensinogen levels (Figure 2A and 2B).[29],[30]
# [6] = 1:10 diluted human plasma, LC-MS/MS
compound,measurement,setting,value
DRVYIHPFHLVI,fragment found,neprilysin,Ang-(1-7)
same,fragment found,[1],Ang I; also recorded: Ang II
same,fragment found,chymase,Ang II
same,fragment found,[2],Ang I; also recorded: Ang II; also recorded: Ang-(1-5)
"angiotensin II (DRVYIHPF; Angiotensin-2; UniProt P01019 25-32, looked up) [Ang II]","Angiotensin metabolite generated from Ang-(1-12), aliskiren + lisinopril",[3]; [6],417 pg/mL
same,"Angiotensin metabolite generated from Ang-(1-12), aliskiren",[3]; [6],7239 pg/mL
CC[C@H](C)[C@H](NC(=O)[C@H](Cc1ccc(O)cc1)NC(=O)[C@@H](NC(=O)[C@H](CCCNC(=N)N)NC(=O)[C@@H](N)CC(=O)O)C(C)C)C(=O)O [Ang-(1-5)] (H-DRVYI-OH),"Angiotensin metabolite generated from Ang-(1-12), aliskiren + lisinopril",[3]; [6],< 2 pg/mL
same,"Angiotensin metabolite generated from Ang-(1-12), aliskiren",[3]; [6],983 pg/mL
CC[C@H](C)[C@H](NC(=O)[C@H](Cc1ccc(O)cc1)NC(=O)[C@@H](NC(=O)[C@H](CCCNC(=N)N)NC(=O)[C@@H](N)CC(=O)O)C(C)C)C(=O)N[C@@H](Cc1c[nH]cn1)C(=O)N1CCC[C@H]1C(=O)O [Ang-(1-7)],Reduction in metabolite formation from Ang-(1-12) by ACE inhibition,"[3]; 1:10 diluted human plasma, 60 min, aliskiren + lisinopril vs aliskiren",50%
same,"Angiotensin metabolite generated from Ang-(1-12), aliskiren + lisinopril",[3]; [6],946 pg/mL
same,"Angiotensin metabolite generated from Ang-(1-12), aliskiren",[3]; [6],2238 pg/mL
"CC[C@H](C)[C@H](NC(=O)[C@@H](NC(=O)[C@H](CC(C)C)NC(=O)[C@H](Cc1c[nH]cn1)NC(=O)[C@H](Cc1ccccc1)NC(=O)[C@@H]1CCCN1C(=O)[C@H](Cc1c[nH]cn1)NC(=O)[C@@H](NC(=O)[C@H](Cc1ccc(O)cc1)NC(=O)[C@@H](NC(=O)[C@H](CCCNC(=N)N)NC(=O)[C@@H](N)CC(=O)O)C(C)C)[C@@H](C)CC)C(C)C)C(=O)O [Ang-(1-12), Angiotensin-(1-12)] (H-DRVYIHPFHLVI-OH)",Contribution of chymase to Ang-(1-12) metabolism,"[3]; 1:10 diluted human plasma, 60 min, 1000 ng/mL, chymase inhibitor chymostatin 10 µmol/L, LC-MS/MS, n = 3",did not contribute to its metabolism
same,Contribution of prolyl oligopeptidase to Ang-(1-12) metabolism,"[3]; 1:10 diluted human plasma, 60 min, 1000 ng/mL, prolyl oligopeptidase inhibitor ZPP 20 µmol/L, LC-MS/MS, n = 3",did not contribute to its metabolism
same,Disappearance of Ang-(1-12) in the presence of aliskiren,"[3]; 1:10 diluted human plasma, 60 min, 1000 ng/mL, renin inhibitor aliskiren 10 µmol/L, LC-MS/MS, n = 3",unaltered
same,Change in Ang-(1-12) recovery after inhibiting neprilysin,"[3]; 1:10 diluted human plasma, 60 min, 1000 ng/mL, sacubitrilat (LBQ-657) 10 µmol/L, LC-MS/MS, n = 3",did not observe a change
same,Change of Ang-(1-12) half-life on addition of lisinopril,"[3]; 1:10 diluted human plasma, 60 min, 1000 ng/mL, subsequent addition of ACE inhibitor lisinopril 10 µmol/L, LC-MS/MS, n = 3",doubling the half-life
same,Change of Ang-(1-12) half-life on addition of amastatin,"[3]; 1:10 diluted human plasma, 60 min, 1000 ng/mL, subsequent addition of aminopeptidase A inhibitor amastatin 10 µmol/L, LC-MS/MS, n = 3",tripling the half-life
same,Half-life of Ang-(1-12) corresponding to undiluted plasma,[3]; extrapolated from 1:10 diluted human plasma,< 3 min
same,Recovery of spiked Ang-(1-12),[4],full recovery
same,Fraction of added Ang-(1-12) that disappeared within 10 minutes,[5]; 10 minutes,> 80%
same,metabolised at 10 min,"[5]; 10 minutes, read-out: Fraction of added Ang-(1-12) that disappeared within 10 minutes",~80%
same,Time within which added angiotensin-(1-12) disappeared,[5],≤ 10 min
